The values that follow come from patent US20210122730A1, “GLUCOCORTICOID RECEPTOR MODULATORS” (ORIC Pharmaceuticals, Inc., priority 2017, published 2021).

As usually defined, the pIC50 is the IC50 on a negative log10 scale, so that one unit is a factor of ten. Lower therefore signals a high IC50.

pIC50: −log10 of the molar value.

In this test the target is T1, GR (Homo sapiens, UniProt P04150).
T1 construct: expressed in transfected cells; host or cells: CHO-K1
T1 sequence (P04150 1-777): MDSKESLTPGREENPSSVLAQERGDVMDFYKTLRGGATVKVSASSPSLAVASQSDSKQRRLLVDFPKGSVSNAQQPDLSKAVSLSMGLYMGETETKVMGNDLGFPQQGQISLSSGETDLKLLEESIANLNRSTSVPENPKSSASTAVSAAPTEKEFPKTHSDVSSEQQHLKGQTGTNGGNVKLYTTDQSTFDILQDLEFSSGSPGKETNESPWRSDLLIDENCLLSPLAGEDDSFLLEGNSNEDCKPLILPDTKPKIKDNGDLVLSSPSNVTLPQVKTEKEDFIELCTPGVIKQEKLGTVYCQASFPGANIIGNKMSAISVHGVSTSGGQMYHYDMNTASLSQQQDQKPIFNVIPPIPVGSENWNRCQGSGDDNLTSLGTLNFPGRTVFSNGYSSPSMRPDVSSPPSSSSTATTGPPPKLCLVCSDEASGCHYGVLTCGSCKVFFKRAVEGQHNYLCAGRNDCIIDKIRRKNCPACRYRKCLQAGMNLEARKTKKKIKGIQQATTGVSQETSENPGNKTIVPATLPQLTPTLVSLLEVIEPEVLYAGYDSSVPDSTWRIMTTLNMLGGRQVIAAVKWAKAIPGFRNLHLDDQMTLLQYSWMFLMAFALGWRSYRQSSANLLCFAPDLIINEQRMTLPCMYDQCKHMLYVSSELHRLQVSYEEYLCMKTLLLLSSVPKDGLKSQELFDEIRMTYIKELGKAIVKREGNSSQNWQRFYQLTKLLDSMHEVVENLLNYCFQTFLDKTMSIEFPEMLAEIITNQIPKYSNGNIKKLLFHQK
Kind of test: In Vitro GR Luciferase Reporter Assay (antagonist mode, CHO-K1-GR-MMTV-Luc reporter cells). To be noted: antagonist mode, 10 nM Dexamethasone. Type of test: cell-based. In a few lines: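 CHO-K1-GR-MMTV-Luc cells in phenol red-free DMEM with 10% CSS, stimulated with 10 nM dexamethasone (final) and treated with 8-point 1:5 compound dilutions for about 18-24 h at 37° C. Luciferase measured by OneGlo luminescence; IC50 derived for inhibition of GR activity.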
`Cn1ccc(S(=O)(=O)N(C2CC2)[C@H]2CCC3=Cc4c(cnn4-c4ccc(F)cc4)C[C@]3(C(=O)c3nccs3)C2)n1` [Example 147, N-cyclopropyl-N-((4aS,6S)-1-(4-fluorophenyl)-4a-(thiazole-2-carbonyl)-4,4a,5,6,7,8-hexahydro-1H-benzo[f]indazol-6-yl)-1-methyl-1H-pyrazole-3-sulfonamide] gave a pIC50 of no less than 7.00.
As for `CN([C@H]1CCC2=Cc3c(cnn3-c3ccc(F)cc3)C[C@]2(C(=O)c2ncc(C3CC3)s2)C1)S(=O)(=O)c1cnn(C)n1` [Example 148, N-((4aS,6S)-4a-(5-cyclopropylthiazole-2-carbonyl)-1-(4-fluorophenyl)-4,4a,5,6,7,8-hexahydro-1H-benzo[f]indazol-6-yl)-N,2-dimethyl-2H-1,2,3-triazole-4-sulfonamide], the figure is no less than 7.00; as for `CN([C@H]1CCC2=Cc3c(cnn3-c3ccc(F)cc3)C[C@]2(C(=O)c2cc(C3CC3)ccn2)C1)S(=O)(=O)c1cnn(C)n1` [Example 149, N-((4aS,6S)-4a-(4-cyclopropylpicolinoyl)-1-(4-fluorophenyl)-4,4a,5,6,7,8-hexahydro-1H-benzo[f]indazol-6-yl)-N,2-dimethyl-2H-1,2,3-triazole-4-sulfonamide], no less than 7.00; as for `CN([C@H]1CCC2=Cc3c(cnn3-c3ccc(F)cc3)C[C@]2(C(=O)c2nc(C3CC3)cs2)C1)S(=O)(=O)c1cnn(C)n1` [Example 150, N-((4aS,6S)-4a-(4-cyclopropylthiazole-2-carbonyl)-1-(4-fluorophenyl)-4,4a,5,6,7,8-hexahydro-1H-benzo[f]indazol-6-yl)-N,2-dimethyl-2H-1,2,3-triazole-4-sulfonamide], no less than 7.00.
In turn, `CN([C@H]1CCC2=Cc3c(cnn3-c3ccc(F)cc3)C[C@]2(C(=O)c2ncc(C(F)(F)F)s2)C1)S(=O)(=O)c1cnn(C)n1` [Example 151, N-((4aS,6S)-1-(4-fluorophenyl)-4a-(5-(trifluoromethyl)thiazole-2-carbonyl)-4,4a,5,6,7,8-hexahydro-1H-benzo[f]indazol-6-yl)-N,2-dimethyl-2H-1,2,3-triazole-4-sulfonamide] showed a pIC50 of no less than 7.00.
As for `Cn1ccc(S(=O)(=O)N(C2CC2)[C@H]2CCC3=Cc4c(cnn4-c4ccc(F)cc4)C[C@]3(C(=O)c3ccc(C4CC4)cn3)C2)n1` [Example 152, N-cyclopropyl-N-((4aS,6S)-4a-(5-cyclopropylpicolinoyl)-1-(4-fluorophenyl)-4,4a,5,6,7,8-hexahydro-1H-benzo[f]indazol-6-yl)-1-methyl-1H-pyrazole-3-sulfonamide], the figure is no less than 7.00.
Turning to `CCN([C@H]1CCC2=Cc3c(cnn3-c3ccc(F)cc3)C[C@]2(C(=O)c2ncc(C3CC3)s2)C1)S(=O)(=O)c1cnn(C)c1` [Example 154, N-((4aS,6S)-4a-(5-cyclopropylthiazole-2-carbonyl)-1-(4-fluorophenyl)-4,4a,5,6,7,8-hexahydro-1H-benzo[f]indazol-6-yl)-N-ethyl-1-methyl-1H-pyrazole-4-sulfonamide], the pIC50 was no less than 7.00.
As for `CCn1ccc(S(=O)(=O)N(C)[C@H]2CCC3=Cc4c(cnn4-c4ccc(F)cc4)C[C@]3(C(=O)c3cc(C(F)(F)F)ccn3)C2)n1` [Example 157, 1-ethyl-N-((4aS,6S)-1-(4-fluorophenyl)-4a-(4-(trifluoromethyl)picolinoyl)-4,4a,5,6,7,8-hexahydro-1H-benzo[f]indazol-6-yl)-N-methyl-1H-pyrazole-3-sulfonamide], the figure is no less than 7.00; as for `CCn1cc(S(=O)(=O)N(C2CC2)[C@H]2CCC3=Cc4c(cnn4-c4ccc(F)cc4)C[C@]3(C(=O)c3cc(C(F)(F)F)ccn3)C2)cn1` [Example 158, N-cyclopropyl-1-ethyl-N-((4aS,6S)-1-(4-fluorophenyl)-4a-(4-(trifluoromethyl)picolinoyl)-4,4a,5,6,7,8-hexahydro-1H-benzo[f]indazol-6-yl)-1H-pyrazole-4-sulfonamide], no less than 7.00.
